According to ChEMBL document CHEMBL3860094, “Synthesis, structure determination, and biological evaluation of phenylsulfonyl hydrazide derivatives as potential anti-inflammatory agents” (Bioorg Med Chem Lett, 2016):

How the values were obtained:
[1] = target: T1, Prostaglandin G/H synthase 1 (Ovis aries, UniProt P05979); assay: Inhibition of ovine COX1 by enzyme immunoassay
T1 sequence (P05979 whole entry): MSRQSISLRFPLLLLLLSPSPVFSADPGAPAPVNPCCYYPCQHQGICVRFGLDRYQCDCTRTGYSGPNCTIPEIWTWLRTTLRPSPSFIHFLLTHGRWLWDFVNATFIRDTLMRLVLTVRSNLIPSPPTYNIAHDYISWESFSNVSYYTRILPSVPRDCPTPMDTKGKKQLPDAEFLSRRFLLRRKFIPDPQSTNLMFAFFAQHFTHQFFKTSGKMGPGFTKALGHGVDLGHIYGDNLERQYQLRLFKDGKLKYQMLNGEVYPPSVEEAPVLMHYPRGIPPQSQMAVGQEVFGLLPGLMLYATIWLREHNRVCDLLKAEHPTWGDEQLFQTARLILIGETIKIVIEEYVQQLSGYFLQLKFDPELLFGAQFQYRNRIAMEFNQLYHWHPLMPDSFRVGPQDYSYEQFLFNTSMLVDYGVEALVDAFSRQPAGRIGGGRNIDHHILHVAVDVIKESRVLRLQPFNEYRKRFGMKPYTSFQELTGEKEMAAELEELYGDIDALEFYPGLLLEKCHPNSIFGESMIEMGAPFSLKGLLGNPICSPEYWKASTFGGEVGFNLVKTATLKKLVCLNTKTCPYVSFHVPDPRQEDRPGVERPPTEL

[2] = target: T2, Prostaglandin G/H synthase 2 (Homo sapiens, UniProt P35354); assay: Inhibition of recombinant human COX2 by enzyme immunoassay
T2 sequence (P35354 whole entry): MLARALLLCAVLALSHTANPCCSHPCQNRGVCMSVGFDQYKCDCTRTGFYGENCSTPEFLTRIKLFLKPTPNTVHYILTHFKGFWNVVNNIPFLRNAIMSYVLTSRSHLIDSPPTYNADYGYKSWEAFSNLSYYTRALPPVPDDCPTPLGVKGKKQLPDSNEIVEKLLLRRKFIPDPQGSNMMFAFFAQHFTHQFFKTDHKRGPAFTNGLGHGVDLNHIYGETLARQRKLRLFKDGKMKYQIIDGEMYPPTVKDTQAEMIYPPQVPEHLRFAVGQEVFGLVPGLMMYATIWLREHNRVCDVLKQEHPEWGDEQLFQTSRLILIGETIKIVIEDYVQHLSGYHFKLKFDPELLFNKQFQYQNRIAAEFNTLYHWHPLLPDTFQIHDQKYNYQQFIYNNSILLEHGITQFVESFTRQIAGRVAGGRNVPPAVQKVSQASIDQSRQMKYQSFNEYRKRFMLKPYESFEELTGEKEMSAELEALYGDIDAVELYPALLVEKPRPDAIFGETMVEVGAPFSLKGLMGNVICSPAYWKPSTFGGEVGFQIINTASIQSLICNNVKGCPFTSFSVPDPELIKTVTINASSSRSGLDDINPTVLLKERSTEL

[3] = target: T3, Prostaglandin E synthase (Mus musculus) (UniProt Q9JM51); assay: Inhibition of mPGES-1 in mouse RAW264.7 cells assessed as reduction in LPS-induced PGE2 production at 1 uM after 24 hrs relative to control; format: cell-based
T3 sequence (whole entry): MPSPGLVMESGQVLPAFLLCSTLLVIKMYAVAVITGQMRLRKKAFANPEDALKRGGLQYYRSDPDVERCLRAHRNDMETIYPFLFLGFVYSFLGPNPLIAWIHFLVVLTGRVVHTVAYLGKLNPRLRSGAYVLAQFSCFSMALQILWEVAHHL

Prostaglandin E synthase = target: T4, Prostaglandin E synthase (Mus musculus, UniProt Q9JM51); assay: Inhibition of mPGES-1 in mouse RAW264.7 cells assessed as reduction in LPS-induced PGE2 production after 24 hrs; format: cell-based
T4 sequence (Q9JM51 whole entry): T3 sequence (whole entry)

Mus musculus = species on record: Mus musculus; assay: Cytotoxicity against LPS-stimulated mouse RAW264.7 cells assessed as concentration required for reduction in cell viability after 24 hrs by MTT assay; format: toxicity, cell-based; settings: raw264.7, 24 h
[4] = Metabolic stability in rat liver microsomes assessed as compound remaining after 30 mins; format: ADME; settings: read-out: Stability
[5] = Metabolic stability in mouse liver microsomes assessed as compound remaining after 30 mins; format: ADME; settings: read-out: Stability
[6] = Metabolic stability in dog liver microsomes assessed as compound remaining after 30 mins; format: ADME, Canis lupus familiaris; settings: read-out: Stability
[7] = Metabolic stability in human liver microsomes assessed as compound remaining after 30 mins; format: ADME; settings: read-out: Stability
[8] = target: T3, Prostaglandin E synthase (Mus musculus); assay: Inhibition of mPGES-1 in mouse RAW264.7 cells assessed as reduction in LPS-induced PGE2 production at 3 uM after 24 hrs relative to control; format: cell-based
[9] = target: T3, Prostaglandin E synthase (Mus musculus); assay: Inhibition of mPGES-1 in mouse RAW264.7 cells assessed as reduction in LPS-induced PGE2 production at 10 uM after 24 hrs relative to control; format: cell-based

SMILES	IC50 [1] [nM]	IC50 [2] [nM]	inhibition [3] [%]	IC50 (Prostaglandin E synthase) [nM]	remaining at 0.5 h [4] [%]	remaining at 0.5 h [5] [%]	remaining at 0.5 h [6] [%]	remaining at 0.5 h [7] [%]	inhibition [8] [%]	inhibition [9] [%]	Activity (Mus musculus) [µM]
O=C(Oc1ccc2c(c1)CCC2)N(Nc1ccccc1)S(=O)(=O)c1ccc(Cl)cc1	> 1000	> 1000	75	550	–	–	–	–	–	–	> 10
COc1ccc(S(=O)(=O)N(Nc2ccccc2)C(=O)Oc2ccc(OCc3ccccc3)cc2)cc1	> 1000	> 1000	84	60	16.3	42.2	48.5	66.6	–	–	> 10
CS(=O)(=O)Nc1ccc([N+](=O)[O-])cc1OC1CCCCC1 [NS-398]	–	–	–	7	–	–	–	–	86	–	–
COc1ccc(CCN(C)CCCC(C#N)(c2ccc(OC)c(OC)c2)C(C)C)cc1OC (stereo unspecified)	–	–	–	–	–	–	–	< 5	–	–	–

Further lines, with some results ahead:

IC50 [1] [nM]	IC50 [2] [nM]	inhibition [3] [%]	IC50 (Prostaglandin E synthase) [nM]	remaining at 0.5 h [4] [%]	remaining at 0.5 h [5] [%]	remaining at 0.5 h [6] [%]	remaining at 0.5 h [7] [%]	inhibition [8] [%]	inhibition [9] [%]	SMILES	Activity (Mus musculus) [µM]
> 1000	> 1000	73	790	–	–	–	–	–	–	O=C(Oc1ccc2c(c1)CCC2)N(NS(=O)(=O)c1ccc(Cl)cc1)c1ccccc1	> 10
> 1000	> 1000	63	690	–	–	–	–	–	–	COc1ccc(S(=O)(=O)N(Nc2ccccc2)C(=O)Oc2ccccc2OC)cc1	> 10
–	–	0	> 10000	–	–	–	–	–	18	COc1ccc(S(=O)(=O)NN(C(=O)Oc2ccccc2OC)c2ccccc2)cc1	> 10
